The structures appear in SMILES notation.

As a reminder, the IC50 is the concentration that inhibits the measured activity by half.

One experiment deals with PDE10 (Rattus norvegicus (Rat), UniProt Q9QYJ6). As to the kind of experiment: PDE10 ex vivo receptor occupancy (RO) screening in rat striatum. Conditions: oral; for receptor occupancy at 3 mg/kg: 3 mpk, 4 h (footnote C); for receptor occupancy at 10 mg/kg: 10 mpk. As to the method:
The ex vivo screening protocol was approved by Amgen's Institutional Animal Care and Use Committee (IACUC) and in accordance with the National Institutes of Health Guide for Care and Use of Laboratory Animals in facilities accredited by the Association for the Assessment and Accreditation of Laboratory Animal Care (AALAC).
PDE10 inhibitors were dissolved in 2% Hydroxypropylmethylcellulose (HPMC), 1% Tween-80, pH 2.2 with methanesulfonic acid. Male Sprague Dawley® rats weighing 180-225 g (4 per group) were dosed orally with either vehicle or PDE10 inhibitors (3 mg/kg or 10 mg/kg) and then returned to their home cage to allow for absorption of the compounds. After one hour (with 10 mg/kg PDE10 inhibitor) or four hours (with 3 mg/kg or 10 mg/kg PDE10 inhibitor) rats were sacrificed by CO2 inhalation. Blood was obtained by heart puncture and plasma was frozen and stored at −80° C. for exposure analysis. Brains were removed and immediately frozen in chilled methylbutane, and stored at −80° C. until cutting. Three coronal brain slices per brain containing the striatum were cut at […] using a cryostat and placed onto microscope slides, air-dried and stored at −20° C. For radioligand binding experiments, slides were thawed at room temperature and then incubated with 1 nM a tritium labeled tracer compound (insert citation) in binding buffer (150 mM Phosphate-buffered saline containing 2 mM MgCl2 and 100 mM DTT, pH 7.4) for 1 minute at 4° C. To assess non-specific binding, slides containing adjacent brain sections were incubated in the same solution with addition of […] of an unlabelled, structurally unrelated PDE10 antagonist. Afterwards slides were washed 3 times in ice-cold binding buffer, dipped into distilled water to remove buffer salts, and dried under a stream of cold air. Emission of beta particles from the sections was counted for 8 hours in a Beta Imager 2000 (Biospace, Paris, France) and digitized and analyzed using M3 Vision software (Biospace, Paris, France). Total binding radioactivity in the striatum was measured as cpm/mm^2 in hand-drawn regions of interest and averaged across the three sections per brain. Non-specific binding was subtracted to obtain specific binding values and percent occupancy was calculated by setting vehicle specific binding as 0% occupancy.

The target of a further experiment is human PDE10A2 (Homo sapiens (Human), UniProt Q9Y233). As to the kind of experiment: PDE10A enzyme inhibition, PDE IMAP TR-FRET assay. The conditions noted are these: FAM-cAMP substrate. Format: biochemical. As to the method:
An IMAP TR-FRET assay was used to analyze the enzyme activity (Molecular Devices Corp., Sunnyvale Calif.). 10 μL of serial diluted PDE10A (BPS Bioscience, San Diego, Calif.) or tissue homogenate was incubated with equal volumes of diluted fluorescein labeled cAMP or cGMP for 90 min in 384-well Polypropylene assay plates (Greiner, Monroe, N.C.) at room temperature. After incubation, the reaction was stopped by adding 55 μL of diluted binding reagents and was incubated for 4 hours to overnight at room temperature. The plates were read on an Envision (Perkin Elmer, Waltham, Mass.) for time resolved fluorescence resonance energy transfer. The data were analyzed with Genedata Screener® (Lexington, Mass.).
To check the inhibition profile, 0.2 μL of serial diluted compounds were incubated with 10 μL of diluted PDE10 enzyme (BPS Bioscience, San Diego, Calif.) or tissue homogenate in a 384-well Polypropylene assay plate (Greiner, Monroe, N.C.) for 60 min at room temperature. After incubation, 10 μL of diluted fluorescein labeled cAMP or cGMP substrate was added and incubated for 90 min at room temperature. The reaction was stopped by adding 55 μL of diluted binding reagents and plates were read on an Envision (Perkin Elmer, Waltham, Mass.) for time resolved fluorescence resonance energy transfer. The data were analyzed with Genedata Screener® (Lexington, Mass.).
Purified human PDE2A1 and PDE10A2 enzymes were obtained from BPS Bioscience (San Diego, Calif.). IMAP™ TR-FRET progressive binding system, FAM-cAMP substrate were from Molecular Devices (Sunnyvale, Calif.).
The PDE IMAP assay was conducted in a 384-well black Greiner polypropylene plate (Sigma, St. Louis, Mo.). PDE inhibitors were serial diluted in 100% DMSO and dispensed into assay plate at […] per well using Echo® Liquid Handling System from LABCYTE. Ten μL of PDE enzyme in IMAP reaction buffer (10 mM Tris-HCl, pH 7.2, 10 mM MgCl2, 0.05% NaN3, and 0.01% Tween-20) was added into the assay wells. The PDE enzyme concentration used was based on each lot of enzyme activity, to ensure enzyme reaction falls in a linear range under assay condition. 1.4 nM of PDE2 or 8 μM PDE10 were used in the assay system. […] Enzyme reaction was allowed to proceed at room temperature for 90 min, and the reaction is stopped by 55 μl addition of binding reagent according to manufacturer's recommendation. The mixture is further incubated at room temperature for additional 4 hours, and signal was read on an Envision multimode reader (PerkinElmer). Fluorescence signals were measured at 520 nm and 485 nm. The signal ratio at 520/485 nm corresponded to the generation of reaction product of AMP, and it was used in all data analysis. Values from DMSO-treated wells were normalized to POC=100, and no-enzyme wells were normalized to POC=0. IC50 values were determined by using the Genedata Screener V9.0.1. The curve fitting algorithm used for dose response data analysis in Genedata Screener is a custom implementation of a robust curve-fitting algorithm called ROUT (Robust regression with outlier detection) and uses a four-parameter logistical (4 PL) Hill model.
On the technique in general: TR-FRET usually uses a lanthanide donor and a delayed reading to cut background.

Chain of human PDE10A2 (Q9Y233 267-1055): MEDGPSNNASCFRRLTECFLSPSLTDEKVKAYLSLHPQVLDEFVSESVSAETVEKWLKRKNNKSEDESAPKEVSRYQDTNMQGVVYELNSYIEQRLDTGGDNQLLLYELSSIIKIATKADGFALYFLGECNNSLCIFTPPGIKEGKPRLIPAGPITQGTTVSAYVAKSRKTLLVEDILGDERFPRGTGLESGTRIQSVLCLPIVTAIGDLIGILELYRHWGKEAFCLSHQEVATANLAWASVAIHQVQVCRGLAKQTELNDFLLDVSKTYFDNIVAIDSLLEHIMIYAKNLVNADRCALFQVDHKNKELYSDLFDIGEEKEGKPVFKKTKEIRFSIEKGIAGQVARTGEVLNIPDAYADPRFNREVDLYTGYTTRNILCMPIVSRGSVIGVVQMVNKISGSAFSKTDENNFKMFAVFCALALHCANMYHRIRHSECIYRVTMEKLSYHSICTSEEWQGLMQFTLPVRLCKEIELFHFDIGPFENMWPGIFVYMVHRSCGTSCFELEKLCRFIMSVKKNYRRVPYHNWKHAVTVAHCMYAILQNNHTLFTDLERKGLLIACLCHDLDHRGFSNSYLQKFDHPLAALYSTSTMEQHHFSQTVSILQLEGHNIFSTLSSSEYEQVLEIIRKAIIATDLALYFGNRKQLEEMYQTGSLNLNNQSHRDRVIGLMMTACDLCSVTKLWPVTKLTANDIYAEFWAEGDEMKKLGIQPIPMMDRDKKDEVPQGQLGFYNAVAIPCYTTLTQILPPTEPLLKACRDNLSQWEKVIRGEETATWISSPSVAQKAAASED
Chain of PDE10 (Q9QYJ6 whole entry): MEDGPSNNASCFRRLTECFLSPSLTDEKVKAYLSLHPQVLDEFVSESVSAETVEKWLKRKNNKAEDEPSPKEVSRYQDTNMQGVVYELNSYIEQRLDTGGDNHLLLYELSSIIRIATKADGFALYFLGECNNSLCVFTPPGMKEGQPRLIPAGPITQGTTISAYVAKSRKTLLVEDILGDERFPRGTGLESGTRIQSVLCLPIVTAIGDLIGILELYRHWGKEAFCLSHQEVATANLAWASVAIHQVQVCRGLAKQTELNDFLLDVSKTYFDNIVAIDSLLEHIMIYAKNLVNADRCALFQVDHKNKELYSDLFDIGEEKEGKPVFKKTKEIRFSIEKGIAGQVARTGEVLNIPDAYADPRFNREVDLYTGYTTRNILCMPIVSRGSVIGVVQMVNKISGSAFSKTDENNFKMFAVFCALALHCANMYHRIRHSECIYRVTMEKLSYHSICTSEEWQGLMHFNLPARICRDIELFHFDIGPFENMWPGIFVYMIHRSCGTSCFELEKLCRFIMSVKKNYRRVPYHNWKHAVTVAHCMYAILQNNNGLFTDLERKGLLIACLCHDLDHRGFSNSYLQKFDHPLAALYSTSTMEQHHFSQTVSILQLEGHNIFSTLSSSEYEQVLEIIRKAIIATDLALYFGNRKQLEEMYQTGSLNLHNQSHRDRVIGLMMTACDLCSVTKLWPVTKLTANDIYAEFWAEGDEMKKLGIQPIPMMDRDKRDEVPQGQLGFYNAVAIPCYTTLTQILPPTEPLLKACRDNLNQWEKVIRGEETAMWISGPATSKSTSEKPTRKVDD

At PDE10, `CNC(=O)c1ccc(-c2nccnc2C2CCN(c3ccc4ccc(Cl)cc4n3)CC2)cc1F` [Example 1, 4-(3-(1-(7-Chloroquinolin-2-Yl)Piperidin-4-Yl)Pyrazin-2-Yl)-2-Fluoro-N-Methylbenzamide] gave a receptor occupancy at 3 mg/kg of 58.8%. This compound also came in with a receptor occupancy at 10 mg/kg at PDE10 (4 h (footnote B)) of 79%. On human PDE10A2, this compound had an IC50 of 28.7 nM.
On PDE10 (4 h (footnote B)), `CNC(=O)c1ccc(-c2nccnc2C2CCN(c3ccc4ccc(F)cc4n3)CC2)cc1F` [Example 2, 2-Fluoro-4-(3-(1-(7-Fluoroquinolin-2-Yl)Piperidin-4-Yl) Pyrazin-2-Yl)-N-Methylbenzamide] had a receptor occupancy at 10 mg/kg of 112%. The same compound yielded an IC50 on human PDE10A2 of 6.3 nM.
Regarding `CNC(=O)c1ccc(-c2nccnc2C2CCN(c3ccc4ccccc4n3)CC2)cc1F` [Example 3, 2-Fluoro-N-Methyl-4-(3-(1-(Quinolin-2-Yl)Piperidin-4-Yl)Pyrazin-2-Yl)Benzamide], the receptor occupancy at 3 mg/kg on PDE10 was 97.4%. The half-inhibitory concentration (IC50) against human PDE10A2 was 3.1 nM.
With `CNC(=O)c1ccc(-c2nccnc2C2CCN(c3ccc4cc(F)ccc4n3)CC2)cc1F` [Example 4, 2-Fluoro-4-(3-(1-(6-Fluoroquinolin-2-Yl)Piperidin-4-Yl)Pyrazin-2-Yl)-N-Methylbenzamide], the receptor occupancy at 3 mg/kg at PDE10 was 93.3%. The IC50 at human PDE10A2 was 2.8 nM.
The matching figures for `CNC(=O)c1ccc(-c2nccnc2C2CCN(c3ccc4cccc(F)c4n3)CC2)cc1F` [Example 5, 2-Fluoro-4-(3-(1-(8-Fluoroquinolin-2-Yl)Piperidin-4-Yl)Pyrazin-2-Yl)-N-Methylbenzamide]: 68.3% and 7.5 nM.
`CNC(=O)c1ccc(-c2nccnc2C2CN(c3ncc4ccccc4n3)C2)cc1F` [Example 6, 2-Fluoro-N-Methyl-4-(3-(1-(Quinazolin-2-Yl)Azetidin-3-Yl)Pyrazin-2-Yl)Benzamide] had a receptor occupancy at 3 mg/kg on PDE10 of 62.6%. In addition, the receptor occupancy at 10 mg/kg on PDE10 (1 h (footnote A)) came to 85.4%. For the same compound, at human PDE10A2, the IC50 amounted to 7.6 nM.
Take `CNC(=O)c1ccc(-c2nccnc2C2CN(c3ccc4ccccc4n3)C2)cc1F` [Example 7, 2-Fluoro-N-Methyl-4-(3-(1-(Quinolin-2-Yl)Azetidin-3-Yl) Pyrazin-2-Yl)Benzamide]: the receptor occupancy at 3 mg/kg on PDE10 was determined as 110%. Besides, on PDE10 (1 h (footnote A)), the receptor occupancy at 10 mg/kg amounted to 93.2%. In addition, the IC50 against human PDE10A2 was 4 nM.
The matching figures for `CNC(=O)c1ccc(-c2nccnc2C2CN(c3ccc4ccc(F)cc4n3)C2)cc1F` [Example 8, 2-Fluoro-4-(3-(1-(7-Fluoroquinolin-2-Yl)Azetidin-3-Yl) Pyrazin-2-Yl)-N-Methylbenzamide]: 83.5%, 134% and 0.5 nM.
`CNC(=O)c1ccc(-c2nccnc2C2CN(c3ncc4ccc(F)cc4n3)C2)cc1F` [Example 9, 2-Fluoro-4-(3-(1-(7-Fluoroquinazolin-2-Yl)Azetidin-3-Yl)Pyrazin-2-Yl)-N-Methylbenzamide] had a receptor occupancy at 3 mg/kg at PDE10 of 61.8%. For the same compound, the receptor occupancy at 10 mg/kg at PDE10 (1 h (footnote A)) amounted to 123%; on PDE10 (4 h (footnote B)), 87.1%. The compound further gave an IC50 on human PDE10A2 of 30.9 nM.
In the case of `CNC(=O)c1ccc(-c2nccnc2C2CN(c3ncc4ccc(Cl)cc4n3)C2)cc1F` [Example 10, 4-(3-(1-(7-Chloroquinazolin-2-Yl)Azetidin-3-Yl)Pyrazin-2-Yl)-2-Fluoro-N-Methylbenzamide], the receptor occupancy at 3 mg/kg at PDE10 came out at 108%. Moreover, on PDE10 (1 h (footnote A)), the receptor occupancy at 10 mg/kg turned out to be 101%. Further, the IC50 on human PDE10A2 worked out at 5.9 nM.
On PDE10, `CNC(=O)c1ccc(-c2nccnc2C2CN(c3ncc4cc(F)ccc4n3)C2)cc1F` [Example 11, 2-Fluoro-4-(3-(1-(6-Fluoroquinazolin-2-Yl)Azetidin-3-Yl)Pyrazin-2-Yl)-N-Methylbenzamide] came in with a receptor occupancy at 3 mg/kg of 67.5%. This compound returned a receptor occupancy at 10 mg/kg on PDE10 (4 h (footnote B)) of 80%. The IC50 against human PDE10A2 was determined as 16.6 nM.
`CNC(=O)c1ccc(-c2nccnc2C2CN(c3ncc4cc(F)c(Cl)cc4n3)C2)cc1F` [Example 12, 4-(3-(1-(7-Chloro-6-Fluoroquinazolin-2-Yl)Azetidin-3-Yl)Pyrazin-2-Yl)-2-Fluoro-N-Methylbenzamide]: the receptor occupancy at 3 mg/kg on PDE10 amounted to 91.4%. The compound also yielded an IC50 against human PDE10A2 of 3.9 nM.
The matching figures for `CNC(=O)c1ccc(-c2nccnc2C2CN(c3ccc4cc(F)ccc4n3)C2)cc1F` [Example 13, 2-Fluoro-4-(3-(1-(6-Fluoroquinolin-2-Yl)Azetidin-3-Yl) Pyrazin-2-yl)-N-Methylbenzamide]: 77% and 1.7 nM.
As for `CNC(=O)c1ccc(-c2nccnc2C2CN(c3ccc4ncc(Cl)cc4n3)C2)cc1F` [Example 14, 4-(3-(1-(7-Chloro-1,5-Naphthyridin-2-Yl)Azetidin-3-Yl)Pyrazin-2-Yl)-2-Fluoro-N-Methylbenzamide], the receptor occupancy at 3 mg/kg at PDE10 was determined as 78.5%. The compound also came in with an IC50 against human PDE10A2 of 3.6 nM.
